# Experiments:
# [1] = design: AUC5-90, Mean: unit not given beside the values; conditions: Sprague-Dawley, rat, in vivo, 13.6 ug
# in vivo = conditions: male, Sprague Dawley, rat; for bioavailability: % F; for AUC(0-t): AUC0-t; for half-life: T1/2
# Description: Certain drug coated microarrays were tested in vivo in a preclinical model using Sprague Dawley rats. […] Male Sprague Dawley rats with jugular vein catheters were purchased from Charles River Laboratories. Once received, they were acclimated for at least 24 hours prior to dosing.
# Typically, one hour prior to dosing microneedle arrays were removed from refrigeration (approximately 4° C.) and allowed to equilibrate to room temperature.
# The standard procedure for skin preparation and microneedle array application is as follows.
# One day prior to dosing, an area just above the hind legs on the dorsal surface of the rat was shaved using electric clippers. Nair® hair removal lotion (Church & Dwight Co.) was then applied to the area for 5 to 8 minutes to remove remaining fur stubble. The Nair® lotion was then thoroughly removed using a damp cloth. The next day a microneedle array was applied using a spring-loaded applicator. The microneedle array was left in contact with skin for five minutes, before being removed. During array application and contact time the rats were manually restrained.
# Blood was collected at three time points from each animal out of a possible total of five time destinations (5 minutes, 15 minutes, 30 minutes, 45 minutes, 90 minutes) from each rat on a staggered schedule so that all time points would be represented with extra sampling at 15 minutes without overdrawing from any animal. Approximately 1 mL of blood was collected via the catheter from the jugular vein using a syringe and needle from rats for their first two blood draws. For the terminal blood collection, animals were euthanized via CO2 chamber and approximately 1 mL of blood was collected via cardiac puncture. The blood was immediately transferred to a serum separator tube that contained 25 μL of a 2.5 mg/ml aprotinin (Sigma) solution.
# Blood was collected from each rat 5, 10, 15, 30 and 45 minutes post dose. Approximately 600 μL of blood was collected via the catheter from the jugular vein using a syringe and needle from rats for their first four blood draws. For the terminal blood collection, animals were euthanized via CO2 chamber and approximately 600 μL of blood was collected via cardiac puncture. The blood was immediately transferred to a serum separator tube that contained 12 μL of a 2.5 mg/ml aprotinin (Sigma) solution.
# Blood was collected three or four times from each rat at the time points depicted in the tables below. Approximately 1 mL of blood was collected via the catheter from the jugular vein using a syringe and needle from rats for any non-terminal time points. For the terminal blood collection, animals were euthanized via CO2 chamber and approximately 1 mL of blood was collected via cardiac puncture. The blood was immediately transferred to a serum separator tube that contained 20 μL of a 2.5 mg/ml aprotinin (Sigma) solution.
# Blood was collected from each rat 5, 15, 30, 45, 90 and 120 minutes post dose. Approximately 500 μL of blood was collected via the catheter from the jugular vein using a syringe and needle from rats for their first five blood draws. For the terminal blood collection, animals were euthanized via CO2 chamber and approximately 500 μL of blood was collected via cardiac puncture.
# [2] = 9.8 ug, Concentrations of Peptide in Serum
# [3] = 20 ug, Concentration of Peptide in Serum, Mean
# [4] = 22 ug, Concentration of Peptide in Serum, Mean
# [5] = 26.2 ug, Concentration of Peptide in Serum, Mean
# [6] = 26.2 ug, Concentrations of Peptide in Serum
# [7] = 27 ug, Concentration of Peptide in Serum, Mean
# [8] = 27 ug, Concentrations of Peptide in Serum
# [9] = 31 ug, Concentration of Peptide in Serum, Mean
# [10] = 32 ug, Concentration of Peptide in Serum, Mean
# [11] = 32 ug, Concentrations of Peptide in Serum
# [12] = 45.6 ug, Concentration of Peptide in Serum, Mean
# [13] = 54 ug, Concentrations of Peptide in Serum
# [14] = 57.7 ug, Concentration of Peptide in Serum, Mean
# [15] = 67.7 ug, Concentration of Peptide in Serum, Mean
# [16] = 141.9 ug, Concentration of Peptide in Serum, Mean
# [17] = 386.5 ug, Concentration of Peptide in Serum, Mean
structure (smiles),measurement,setting,value
CC[C@H](C)[C@H](NC(=O)[C@H](CO)NC(=O)[C@H](CCCCN)NC(=O)CNC(=O)[C@H](CCCCN)NC(=O)[C@H](CC(=O)O)NC(=O)[C@H](Cc1cnc[nH]1)NC(=O)[C@H](CC(C)C)NC(=O)[C@H](CC(C)C)NC(=O)[C@H](CCC(N)=O)NC(=O)[C@H](Cc1cnc[nH]1)NC(=O)[C@H](CCC(=O)O)NC(=O)[C@H](CO)NC(=O)[C@@H](NC(=O)[C@H](C)N)C(C)C)C(=O)N[C@@H](CCC(N)=O)C(=O)N[C@@H](CC(=O)O)C(=O)N[C@@H](CC(C)C)C(=O)N[C@@H](CCCNC(=N)N)C(=O)N[C@@H](CCCNC(=N)N)C(=O)N[C@@H](CCCNC(=N)N)C(=O)N[C@@H](CCC(=O)O)C(=O)N[C@@H](CC(C)C)C(=O)N[C@@H](CC(C)C)C(=O)N[C@@H](CCC(=O)O)C(=O)N[C@@H](CCCCN)C(=O)N[C@@H](CC(C)C)C(=O)N[C@@H](CC(C)C)C(=O)NC(C)(C)C(=O)N[C@@H](CCCCN)C(=O)N[C@@H](CC(C)C)C(=O)N[C@@H](Cc1cnc[nH]1)C(=O)N[C@H](C(=O)N[C@@H](C)C(N)=O)[C@@H](C)O [Peptide],"AUC5-90, Mean",[1],282
same,"Cmax, Mean",[1],12.3 ng/mL
same,"Tmax, Mean",[1],9 min
same,"Concentration in Serum at 5 min, Mean",[1]; 5 min,11.8 ng/mL
same,"Concentration in Serum at 15 min, Mean",[1]; 0.25 h,10.5 ng/mL
same,"Concentration in Serum at 30 min, Mean",[1]; 0.5 h,7.1 ng/mL
same,bioavailability,in vivo; 9.8 ug,49%
same,AUC(0-t),in vivo; 9.8 ug,5.72 ng·h/mL
same,Cmax,"in vivo; 9.8 ug, Cmax",12 ng/mL
same,level at 5 min,in vivo; [2],12 ng/mL
same,level at 0.25 h,in vivo; [2],9.65 ng/mL
same,level at 0.5 h,in vivo; [2],4.96 ng/mL
same,level at 0.75 h,in vivo; [2],2.07 ng/mL
same,level at 1 h,in vivo; [2],1.47 ng/mL
same,level at 1.5 h,in vivo; [2],0.62 ng/mL
same,level at 2 h,in vivo; [2],0.38 ng/mL
same,half-life,in vivo; 9.8 ug,22 min
same,Tmax,in vivo; 9.8 ug,5 min
same,bioavailability,in vivo; 20 ug,47%
same,AUC(0-t),in vivo; 20 ug,9.6 ng·h/mL
same,Cmax,"in vivo; 20 ug, Cmax",11.9 ng/mL
same,level at 5 min,in vivo; [3],9.34 ng/mL
same,level at 0.25 h,in vivo; [3],11.9 ng/mL
same,level at 0.5 h,in vivo; [3],6.4 ng/mL
same,level at 0.75 h,in vivo; [3],7.12 ng/mL
same,level at 1.5 h,in vivo; [3],3.14 ng/mL
same,half-life,in vivo; 20 ug,43 min
same,Tmax,in vivo; 20 ug,15 min
same,bioavailability,in vivo; 20 ug/kg,69%
same,AUC(0-t),in vivo; 20 ug/kg,2.77 ng·h/mL
same,Cmax,"in vivo; 20 ug/kg, Cmax",7.29 ng/mL
same,Cmax,"in vivo; 20 ug/kg, Cmax (20 μg/kg Dose)",7.29 ng/mL
same,half-life,in vivo; 20 ug/kg,18 min
same,Tmax,in vivo; 20 ug/kg,10 min
same,bioavailability,in vivo; 22 ug,36%
same,AUC(0-t),in vivo; 22 ug,7.75 ng·h/mL
same,Cmax,"in vivo; 22 ug, Cmax",17.1 ng/mL
same,level at 5 min,in vivo; [4],17.1 ng/mL
same,level at 0.25 h,in vivo; [4],13.2 ng/mL
same,level at 0.5 h,in vivo; [4],6.46 ng/mL
same,level at 0.75 h,in vivo; [4],3.35 ng/mL
same,level at 1.5 h,in vivo; [4],0.8 ng/mL
same,half-life,in vivo; 22 ug,19 min
same,Tmax,in vivo; 22 ug,5 min
same,bioavailability,in vivo; 26.2 ug,101%
same,AUC(0-t),in vivo; 26.2 ug,24.1 ng·h/mL
same,Cmax,"in vivo; 26.2 ug, Cmax",44 ng/mL
same,level at 5 min,in vivo; [5],34.6 ng/mL
same,level at 0.25 h,in vivo; [5],44 ng/mL
same,level at 0.5 h,in vivo; [5],17.3 ng/mL
same,level at 0.75 h,in vivo; [5],13.8 ng/mL
same,level at 1.5 h,in vivo; [5],2.22 ng/mL
same,level at 5 min,in vivo; [6],41.1 ng/mL
same,level at 10 min,in vivo; [6],26.7 ng/mL
same,level at 0.25 h,in vivo; [6],42.8 ng/mL
same,level at 0.5 h,in vivo; [6],17.4 ng/mL
same,level at 0.75 h,in vivo; [6],12.5 ng/mL
same,half-life,in vivo; 26.2 ug,18 min
same,Tmax,in vivo; 26.2 ug,15 min
same,AUC(0-t),in vivo; 27 ug,17 ng·h/mL
same,Cmax,"in vivo; 27 ug, Cmax",31 ng/mL
same,level at 5 min,in vivo; [7],32.6 ng/mL
same,level at 0.25 h,in vivo; [7],31 ng/mL
same,level at 0.5 h,in vivo; [7],18.1 ng/mL
same,level at 5 min,"in vivo; 27 ug, Concentration of Peptide in Serum, individual rat",28.2 ng/mL
same,level at 5 min,in vivo; [8],27.4 ng/mL
same,level at 0.25 h,in vivo; [8],29.7 ng/mL
same,level at 0.5 h,in vivo; [8],12.2 ng/mL
same,level at 0.75 h,in vivo; [8],9.1 ng/mL
same,half-life,in vivo; 27 ug,20 min
same,Tmax,in vivo; 27 ug,15 min
same,bioavailability,in vivo; 31 ug,42%
same,AUC(0-t),in vivo; 31 ug,12.5 ng·h/mL
same,Cmax,"in vivo; 31 ug, Cmax",23.6 ng/mL
same,level at 5 min,in vivo; [9],20.3 ng/mL
same,level at 0.25 h,in vivo; [9],23.6 ng/mL
same,level at 0.5 h,in vivo; [9],12.5 ng/mL
same,level at 0.75 h,in vivo; [9],4.73 ng/mL
same,level at 1.5 h,in vivo; [9],1.04 ng/mL
same,half-life,in vivo; 31 ug,17 min
same,Tmax,in vivo; 31 ug,15 min
same,bioavailability,in vivo; 32 ug,102%
same,AUC(0-t),in vivo; 32 ug,27.4 ng·h/mL
same,Cmax,"in vivo; 32 ug, Cmax",49.2 ng/mL
same,level at 5 min,in vivo; [10],45.2 ng/mL
same,level at 0.25 h,in vivo; [10],49.2 ng/mL
same,level at 0.5 h,in vivo; [10],18.9 ng/mL
same,level at 0.75 h,in vivo; [10],13.6 ng/mL
same,level at 1.5 h,in vivo; [10],5.03 ng/mL
same,level at 5 min,in vivo; [11],25.1 ng/mL
same,level at 10 min,in vivo; [11],34.4 ng/mL
same,level at 0.25 h,in vivo; [11],34 ng/mL
same,level at 0.5 h,in vivo; [11],17.8 ng/mL
same,level at 0.75 h,in vivo; [11],12.7 ng/mL
same,half-life,in vivo; 32 ug,25 min
same,Tmax,in vivo; 32 ug,15 min
same,bioavailability,in vivo; 45.6 ug,108%
same,AUC(0-t),in vivo; 45.6 ug,48.7 ng·h/mL
same,Cmax,"in vivo; 45.6 ug, Cmax",88.2 ng/mL
same,level at 5 min,in vivo; [12],88.2 ng/mL
same,level at 0.25 h,in vivo; [12],76.1 ng/mL
same,level at 0.5 h,in vivo; [12],36.1 ng/mL
same,level at 0.75 h,in vivo; [12],29.3 ng/mL
same,level at 1.5 h,in vivo; [12],4.79 ng/mL
same,half-life,in vivo; 45.6 ug,20 min
same,Tmax,in vivo; 45.6 ug,5 min
same,bioavailability,in vivo; 54 ug,37%
same,AUC(0-t),in vivo; 54 ug,23 ng·h/mL
same,Cmax,"in vivo; 54 ug, Cmax",49.8 ng/mL
same,level at 5 min,in vivo; [13],16.5 ng/mL
same,level at 0.25 h,in vivo; [13],49.8 ng/mL
same,level at 0.5 h,in vivo; [13],17.1 ng/mL
same,level at 0.75 h,in vivo; [13],9.37 ng/mL
same,level at 1 h,in vivo; [13],7.75 ng/mL
same,half-life,in vivo; 54 ug,24 min
same,Tmax,in vivo; 54 ug,15 min
same,bioavailability,in vivo; 57.7 ug,82%
same,AUC(0-t),in vivo; 57.7 ug,41.8 ng·h/mL
same,Cmax,"in vivo; 57.7 ug, Cmax",60.8 ng/mL
same,level at 5 min,in vivo; [14],43.1 ng/mL
same,level at 0.25 h,in vivo; [14],60.8 ng/mL
same,level at 0.5 h,in vivo; [14],40.1 ng/mL
same,level at 0.75 h,in vivo; [14],28.1 ng/mL
same,level at 1.5 h,in vivo; [14],3.72 ng/mL
same,half-life,in vivo; 57.7 ug,18 min
same,Tmax,in vivo; 57.7 ug,15 min
same,bioavailability,in vivo; 67.7 ug,74%
same,AUC(0-t),in vivo; 67.7 ug,48.2 ng·h/mL
same,Cmax,"in vivo; 67.7 ug, Cmax",82.7 ng/mL
same,level at 5 min,in vivo; [15],64.9 ng/mL
same,level at 0.25 h,in vivo; [15],82.7 ng/mL
same,level at 0.5 h,in vivo; [15],51.3 ng/mL
same,level at 0.75 h,in vivo; [15],19.7 ng/mL
same,level at 1.5 h,in vivo; [15],7.6 ng/mL
same,half-life,in vivo; 67.7 ug,22 min
same,Tmax,in vivo; 67.7 ug,15 min
same,AUC(0-t),in vivo; 141.9 ug,173 ng·h/mL
same,Cmax,"in vivo; 141.9 ug, Cmax",230 ng/mL
same,level at 5 min,in vivo; [16],186 ng/mL
same,level at 0.25 h,in vivo; [16],230 ng/mL
same,level at 0.5 h,in vivo; [16],219 ng/mL
same,level at 0.75 h,in vivo; [16],91.8 ng/mL
same,level at 1.5 h,in vivo; [16],23.7 ng/mL
same,half-life,in vivo; 141.9 ug,21 min
same,Tmax,in vivo; 141.9 ug,15 min
same,bioavailability,in vivo; 386.5 ug,22%
same,AUC(0-t),in vivo; 386.5 ug,75.5 ng·h/mL
same,Cmax,"in vivo; 386.5 ug, Cmax",118 ng/mL
same,level at 5 min,in vivo; [17],97.5 ng/mL
same,level at 0.25 h,in vivo; [17],133 ng/mL
same,level at 0.5 h,in vivo; [17],75.4 ng/mL
same,level at 0.75 h,in vivo; [17],42.2 ng/mL
same,level at 1.5 h,in vivo; [17],7.53 ng/mL
same,half-life,in vivo; 386.5 ug,18 min
same,Tmax,in vivo; 386.5 ug,15 min

# Reference: patent US20210052705A1, “METHOD OF DRUG […] FOR PTH, PTHrP AND RELATED PEPTIDES” (Radius Health, Inc., priority 2011, published 2021)
